According to PubChem BioAssay (NCI):
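Test compounds were applied to cells in 96-well plates for 48 hours at 5 doses. At the TGI there is no net growth.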 Where a SMILES comes first, the peptide text is derived from it. [ ]: non-standard residue; d: D form. The star is where a group is joined. Bn2Val = CC(C)[C@@H](C(=O)*)N(Cc1ccccc1)Cc1ccccc1; NH(4-F-benzyl) = Fc1ccc(CN*)cc1; NMeV = CN[C@H](C(=O)O)C(C)C; dNMeA = CN[C@H](C)C(=O)O

Tests used:
Assay in all cases: inhibition of tumour cell growth, NCI panel, 48 h
OVCAR-5 ovarian = system: OVCAR-5 ovarian
U251 CNS = system: U251 CNS
UO-31 renal = system: UO-31 renal
SN12C renal = system: SN12C renal
MDA-MB-435 = system: MDA-MB-435
UACC-62 melanoma = system: UACC-62 melanoma
NCI-H460 lung = system: NCI-H460 lung
DU-145 prostate = system: DU-145 prostate
HOP-62 NSCLC = system: HOP-62 NSCLC
CAKI-1 renal = system: CAKI-1 renal
SF-539 CNS = system: SF-539 CNS
MDA-N = system: MDA-N
RPMI-8226 leukemia = system: RPMI-8226 leukemia
MDA-MB-231 breast = system: MDA-MB-231 breast
BT-549 breast = system: BT-549 breast
SNB-19 CNS = system: SNB-19 CNS
RXF 393 renal = system: RXF 393 renal
COLO 205 colon = system: COLO 205 colon
PC-3 prostate = system: PC-3 prostate
A549 NSCLC = system: A549 NSCLC
M14 melanoma = system: M14 melanoma
OVCAR-3 ovarian = system: OVCAR-3 ovarian
SK-MEL-2 melanoma = system: SK-MEL-2 melanoma
SF-268 CNS = system: SF-268 CNS
HS 578T breast = system: HS 578T breast
MALME-3M melanoma = system: MALME-3M melanoma
SF-295 CNS = system: SF-295 CNS
SK-OV-3 ovarian = system: SK-OV-3 ovarian
UACC-257 melanoma = system: UACC-257 melanoma
ACHN renal = system: ACHN renal
T-47D breast = system: T-47D breast
NCI-H226 lung = system: NCI-H226 lung
NCI/ADR-RES ovarian = system: NCI/ADR-RES ovarian
MCF7 breast = system: MCF7 breast
TK-10 renal = system: TK-10 renal
OVCAR-4 ovarian = system: OVCAR-4 ovarian
HCC-2998 colon = system: HCC-2998 colon
CCRF-CEM leukemia = system: CCRF-CEM leukemia
HCT-15 colon = system: HCT-15 colon
K-562 leukemia = system: K-562 leukemia
KM12 colon = system: KM12 colon
NCI-H23 lung = system: NCI-H23 lung
MOLT-4 leukemia = system: MOLT-4 leukemia
SK-MEL-5 melanoma = system: SK-MEL-5 melanoma
786-0 renal = system: 786-0 renal
EKVX NSCLC = system: EKVX NSCLC
OVCAR-8 ovarian = system: OVCAR-8 ovarian
HL-60(TB) leukemia = system: HL-60(TB) leukemia
HCT-116 colon = system: HCT-116 colon
SR leukemia = system: SR leukemia
HT29 colon = system: HT29 colon
A498 renal = system: A498 renal
LOX IMVI melanoma = system: LOX IMVI melanoma
SK-MEL-28 melanoma = system: SK-MEL-28 melanoma
SW-620 colon = system: SW-620 colon
IGROV1 ovarian = system: IGROV1 ovarian
HOP-92 NSCLC = system: HOP-92 NSCLC
NCI-H522 lung = system: NCI-H522 lung
SNB-75 CNS = system: SNB-75 CNS

CC(C)[C@H](NC(=O)[C@H](C(C)C)N(Cc1ccccc1)Cc1ccccc1)C(=O)N(C)[C@H](C(=O)N1CCC[C@H]1C(=O)N(C)[C@H](C)C(=O)NCc1ccc(F)cc1)C(C)C (Bn2Val-V[NMeV]P[dNMeA]-{NH(4-F-benzyl)})
TGI (OVCAR-5 ovarian): 15.4 µM | TGI (U251 CNS): > 25.6 µM | TGI (UO-31 renal): 6.42 µM | TGI (SN12C renal): 8.76 µM | TGI (MDA-MB-435): > 31.9 µM | TGI (UACC-62 melanoma): 9.66 µM | TGI (NCI-H460 lung): > 38.7 µM | TGI (DU-145 prostate): > 100 µM | TGI (HOP-62 NSCLC): 39.4 µM | TGI (CAKI-1 renal): > 63.1 µM | TGI (SF-539 CNS): 7.99 µM | TGI (MDA-N): 27.9 µM | TGI (RPMI-8226 leukemia): > 100 µM | TGI (MDA-MB-231 breast): 11.2 µM | TGI (BT-549 breast): 19.1 µM | TGI (SNB-19 CNS): > 65.6 µM | TGI (RXF 393 renal): 7.9 µM | TGI (COLO 205 colon): 3.28 µM | TGI (PC-3 prostate): > 25.6 µM | TGI (A549 NSCLC): > 25.2 µM | TGI (M14 melanoma): > 20.3 µM | TGI (OVCAR-3 ovarian): 9.92 µM | TGI (SK-MEL-2 melanoma): 4.03 µM | TGI (SF-268 CNS): 10 µM | TGI (HS 578T breast): 24.7 µM | TGI (MALME-3M melanoma): 9.23 µM | TGI (SF-295 CNS): 13.6 µM | TGI (SK-OV-3 ovarian): > 100 µM | TGI (UACC-257 melanoma): > 47.4 µM | TGI (ACHN renal): 20.6 µM | TGI (T-47D breast): > 83.9 µM | TGI (NCI-H226 lung): 6.23 µM | TGI (NCI/ADR-RES ovarian): > 100 µM | TGI (MCF7 breast): 7.32 µM | TGI (TK-10 renal): > 61.2 µM | TGI (OVCAR-4 ovarian): > 47.4 µM | TGI (HCC-2998 colon): 12.8 µM | TGI (CCRF-CEM leukemia): > 100 µM | TGI (HCT-15 colon): > 80.9 µM | TGI (K-562 leukemia): > 100 µM | TGI (KM12 colon): > 100 µM | TGI (NCI-H23 lung): 32.5 µM | TGI (MOLT-4 leukemia): > 20.8 µM | TGI (SK-MEL-5 melanoma): 4.7 µM | TGI (786-0 renal): 36.8 µM | TGI (EKVX NSCLC): 18.4 µM | TGI (OVCAR-8 ovarian): > 51.5 µM | TGI (HL-60(TB) leukemia): 5.52 µM | TGI (HCT-116 colon): 8.82 µM | TGI (SR leukemia): 4.65 µM | TGI (HT29 colon): 4.18 µM | TGI (A498 renal): 6.71 µM | TGI (LOX IMVI melanoma): 3.52 µM | TGI (SK-MEL-28 melanoma): > 61.7 µM | TGI (SW-620 colon): > 100 µM | TGI (IGROV1 ovarian): 9.7 µM | TGI (HOP-92 NSCLC): 10.3 µM | TGI (NCI-H522 lung): 7.61 µM | TGI (SNB-75 CNS): > 37.5 µM

NC(C(=O)O)c1cc(=O)[nH]o1 (stereo not drawn)
TGI (OVCAR-5 ovarian): > 100 µM | TGI (U251 CNS): > 100 µM | TGI (UO-31 renal): > 100 µM | TGI (SN12C renal): > 100 µM | TGI (MDA-MB-435): > 100 µM | TGI (UACC-62 melanoma): > 100 µM | TGI (NCI-H460 lung): > 100 µM | TGI (DU-145 prostate): > 100 µM | TGI (HOP-62 NSCLC): > 100 µM | TGI (CAKI-1 renal): > 100 µM | TGI (SF-539 CNS): > 100 µM | TGI (MDA-N): > 100 µM | TGI (RPMI-8226 leukemia): > 100 µM | TGI (MDA-MB-231 breast): > 100 µM | TGI (BT-549 breast): > 69.9 µM | TGI (SNB-19 CNS): > 100 µM | TGI (RXF 393 renal): > 100 µM | TGI (COLO 205 colon): > 100 µM | TGI (PC-3 prostate): > 100 µM | TGI (A549 NSCLC): > 100 µM | TGI (M14 melanoma): > 100 µM | TGI (OVCAR-3 ovarian): > 100 µM | TGI (SK-MEL-2 melanoma): > 100 µM | TGI (SF-268 CNS): > 100 µM | TGI (HS 578T breast): > 100 µM | TGI (MALME-3M melanoma): > 100 µM | TGI (SF-295 CNS): > 100 µM | TGI (SK-OV-3 ovarian): > 100 µM | TGI (UACC-257 melanoma): > 100 µM | TGI (ACHN renal): > 100 µM | TGI (T-47D breast): > 100 µM | TGI (NCI-H226 lung): > 100 µM | TGI (NCI/ADR-RES ovarian): > 100 µM | TGI (MCF7 breast): > 100 µM | TGI (TK-10 renal): > 100 µM | TGI (OVCAR-4 ovarian): > 100 µM | TGI (HCC-2998 colon): > 100 µM | TGI (CCRF-CEM leukemia): > 100 µM | TGI (HCT-15 colon): > 100 µM | TGI (K-562 leukemia): > 100 µM | TGI (KM12 colon): > 100 µM | TGI (NCI-H23 lung): > 100 µM | TGI (MOLT-4 leukemia): > 100 µM | TGI (SK-MEL-5 melanoma): > 100 µM | TGI (786-0 renal): > 100 µM | TGI (EKVX NSCLC): > 100 µM | TGI (OVCAR-8 ovarian): > 100 µM | TGI (HL-60(TB) leukemia): > 100 µM | TGI (HCT-116 colon): > 100 µM | TGI (SR leukemia): > 100 µM | TGI (HT29 colon): > 100 µM | TGI (A498 renal): > 100 µM | TGI (LOX IMVI melanoma): > 100 µM | TGI (SK-MEL-28 melanoma): > 100 µM | TGI (SW-620 colon): > 100 µM | TGI (IGROV1 ovarian): > 100 µM | TGI (HOP-92 NSCLC): > 100 µM | TGI (NCI-H522 lung): > 100 µM | TGI (SNB-75 CNS): > 100 µM
